± gives the standard deviation of the averaged measurements.
Assays:
Assay in all cases: relative cell number vs DMSO control (72 h) (% of DMSO); higher = less growth inhibition (more cells)
Settings in all cases: sgRNA knockout: sgNT
[1] = system: BT-20
Method: (§1)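 QMAP-Seq: a pool of 5 breast cancer cell lines (ZR-75-1, SKBR3, HCC-38, MDA-MB-231, BT-20), each carrying 12 doxycycline-inducible Cas9 sgRNA perturbations (11 knockouts plus non-targeting sgNT), was treated with compounds for 72 h at four 10-fold doses (10 nM-10 uM or 1 nM-1 uM range). Barcodes were amplified and sequenced, and cell number was interpolated from 293T spike-in standard curves. The result is expressed as % of the median of DMSO wells. Two biological replicates.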

[2] = system: HCC-38
Method: as §1

[3] = system: MDA-MB-231
Method: as §1

[4] = system: SKBR3
Method: as §1

[5] = system: ZR-75-1
Method: as §1

SMILES	relative cell number ([1]; 1 nM)	relative cell number ([1]; 10 nM)	relative cell number ([1]; 100 nM)	relative cell number ([1]; 1000 nM)	relative cell number ([2]; 1 nM)	relative cell number ([2]; 10 nM)	relative cell number ([2]; 100 nM)	relative cell number ([2]; 1000 nM)	relative cell number ([3]; 1 nM)	relative cell number ([3]; 10 nM)	relative cell number ([3]; 100 nM)	relative cell number ([3]; 1000 nM)	relative cell number ([4]; 1 nM)	relative cell number ([4]; 10 nM)	relative cell number ([4]; 100 nM)	relative cell number ([4]; 1000 nM)	relative cell number ([5]; 1 nM)	relative cell number ([5]; 10 nM)	relative cell number ([5]; 100 nM)	relative cell number ([5]; 1000 nM)	relative cell number ([1]; 10000 nM)	relative cell number ([2]; 10000 nM)	relative cell number ([3]; 10000 nM)	relative cell number ([4]; 10000 nM)	relative cell number ([5]; 10000 nM)
CN1CCN(c2ccc(C(=O)Nc3n[nH]c4ccc(Cc5cc(F)cc(F)c5)cc34)c(NC3CCOCC3)c2)CC1 [Entrectinib]	102 ± 28	97.9 ± 13	91.6 ± 1.3	92.9 ± 5.6	90.4 ± 11	96.6 ± 2.2	89.3 ± 23	79.1 ± 6.5	86.7 ± 26	101 ± 9.8	93.3 ± 6.3	105 ± 6.8	113 ± 7.7	113 ± 3.7	82.9 ± 36	95 ± 19	73.5 ± 22	105 ± 44	73 ± 13	85.7 ± 8.3					
CCOc1ccccc1-n1c(C(C)N2CCN(C(=O)COc3ccc(Cl)cc3)CC2)nc2ccccc2c1=O (stereo not given) [Erastin]		122 ± 20	84.4 ± 8.1	99.8 ± 1.4		97.1 ± 7.7	103 ± 9.8	99.2 ± 13		90.4 ± 8.9	103 ± 30	87.6 ± 4.9		111.3 ± 0.82	85.9 ± 42	118 ± 53		99.6 ± 21	89.4 ± 42	81.3 ± 20	40 ± 1.6	60.1 ± 4.2	25.1 ± 4.8	46 ± 11	60.6 ± 13
C#Cc1cccc(Nc2ncnc3cc(OCCOC)c(OCCOC)cc23)c1 [Erlotinib]		103 ± 8.8	82.9 ± 2.6	81.9 ± 2		105 ± 3	87.3 ± 9.9	99.1 ± 6.6		98.8 ± 11	83.4 ± 2.6	98.4 ± 8.8		124 ± 20	97.3 ± 14	79 ± 12		99 ± 27	63.2 ± 3.8	97 ± 18	82.9 ± 8.9	94.8 ± 1.3	83.6 ± 2.8	43.6 ± 8.1	84.2 ± 26
CCOC(=O)[C@@]1(CCCCCCOc2ccc(Cl)cc2)CO1 [Etomoxir]		97.7 ± 1	90.3 ± 13	122 ± 23		94.85 ± 0.42	94.52 ± 0.29	107 ± 19		120 ± 25	109 ± 1.7	114 ± 30		80.7 ± 22	98.3 ± 11	86.5 ± 40		67.6 ± 37	90.7 ± 8.2	75.46 ± 0.14	107 ± 9.7	86.4 ± 3.9	92.8 ± 19	98.3 ± 36	57.2 ± 7.3
COc1cc([C@@H]2c3cc4c(cc3[C@@H](O[C@@H]3O[C@@H]5CO[C@@H](C)O[C@H]5[C@H](O)[C@H]3O)[C@H]3COC(=O)[C@H]23)OCO4)cc(OC)c1O [Etoposide]		87 ± 6.6	83 ± 1.2	52.6 ± 0.56		75.4 ± 33	84.8 ± 13	31.6 ± 5.3		81.6 ± 3.5	71.7 ± 1.1	21.8 ± 1.8		58 ± 10	50.1 ± 4.5	31.3 ± 9.5		56 ± 2.7	54.5 ± 4.6	46.8 ± 4.2	36 ± 15	20.5 ± 1.8	11.9 ± 1.1	12.6 ± 12	31.5 ± 1.5
CO[C@H]1C[C@@H]2CC[C@@H](C)[C@@](O)(O2)C(=O)C(=O)N2CCCC[C@H]2C(=O)O[C@H]([C@H](C)C[C@@H]2CC[C@@H](OCCO)[C@H](OC)C2)CC(=O)[C@H](C)/C=C(\C)[C@@H](O)[C@@H](OC)C(=O)[C@H](C)C[C@H](C)/C=C/C=C/C=C/1C [Everolimus]	56 ± 3.1	63.7 ± 4.2	49.5 ± 6.8	71.5 ± 5.7	56.5 ± 4.8	59.2 ± 2.3	64.7 ± 2.1	59.7 ± 3.3	76.3 ± 15	50.9 ± 14	87.5 ± 11	88.3 ± 6.2	55.6 ± 18	67.6 ± 1.8	57.5 ± 21	70.7 ± 0.84	69.7 ± 18	66.8 ± 8.4	58 ± 11	42.7 ± 18					
C=C1C[C@@H]2[C@H](CC[C@]3(C)C(=O)CC[C@@H]23)[C@@]2(C)C=CC(=O)C=C12 [Exemestane]		99.8 ± 6	89.5 ± 1.1	103 ± 5.9		108 ± 28	92 ± 12	113 ± 3.1		89.3 ± 13	88.2 ± 22	80.5 ± 6		108 ± 22	93.4 ± 18	115 ± 9.4		123 ± 22	82.5 ± 26	104 ± 67	95.4 ± 9.2	109 ± 25	69.8 ± 21	102 ± 12	99 ± 4.8
CC(C)n1c(/C=C/C(O)CC(O)CC(=O)O)c(-c2ccc(F)cc2)c2ccccc21 (stereo not given) [Fluvastatin]		67.8 ± 3.3	95 ± 7	97.3 ± 4.6		110 ± 7.6	102 ± 6.7	96.6 ± 11		108 ± 46	92.1 ± 46	30.8 ± 7.9		64.9 ± 4	87.3 ± 1.6	82.5 ± 41		78.2 ± 28	83.5 ± 20	62.6 ± 22	72.2 ± 16	65.4 ± 2.2	10.6 ± 3.6	51 ± 34	78.7 ± 1.4
C[C@]12CC[C@@H]3c4ccc(O)cc4C[C@@H](CCCCCCCCC[S+]([O-])CCCC(F)(F)C(F)(F)F)[C@H]3[C@@H]1CC[C@@H]2O (stereo not given in full) [Fulvestrant]		95.9 ± 6.4	79.5 ± 6.8	86.6 ± 16		83.8 ± 12	102 ± 2	103 ± 6.4		83.6 ± 3.7	93.5 ± 22	89.8 ± 4		90.75 ± 0.73	48.8 ± 3.3	65.8 ± 26		66.3 ± 28	41.9 ± 3.1	73.3 ± 26	110 ± 24	94.5 ± 1.7	92 ± 12	65.9 ± 19	84 ± 39
OCCn1cc(-c2ccc3c(c2)CC/C3=N\O)c(-c2ccncc2)n1 [GDC0879]		103 ± 17	112 ± 4.5	130 ± 8		104 ± 17	124 ± 10	134 ± 12		114 ± 15	92 ± 2.5	106 ± 4.8		114 ± 27	151 ± 3.4	81.8 ± 29		128.7 ± 1.1	137 ± 11	131 ± 12	110 ± 1.5	107 ± 4.3	105 ± 5.9	110 ± 11	122 ± 81
CS(=O)(=O)N1CCN(Cc2cc3nc(-c4cccc5[nH]ncc45)nc(N4CCOCC4)c3s2)CC1 [GDC0941]		106 ± 16	82.9 ± 45	59.6 ± 12		94.3 ± 5.9	95 ± 5.9	79.2 ± 12		126 ± 30	84 ± 21	66.3 ± 8.2		96.1 ± 17	67.8 ± 33	38.6 ± 4.8		94.4 ± 15	62.4 ± 20	52.5 ± 23	55.9 ± 24	33.5 ± 0.44	44.3 ± 12	35.6 ± 8.4	26.1 ± 8.7
CC(C)(C)OC(=O)CN(Cc1ccc(Cl)cc1)Cc1ccc([N+](=O)[O-])s1 [GSK4112]		73.6 ± 2	111 ± 14	94 ± 20		78.9 ± 4.7	95.1 ± 11	95.8 ± 10		82.6 ± 9.2	96.4 ± 7.3	82.9 ± 9.5		87.6 ± 3.9	89 ± 20	66.5 ± 15		100 ± 4.8	148 ± 35	86.4 ± 8.4	104 ± 3.4	96.5 ± 11	114 ± 40	117 ± 11	100 ± 29
